EPA's ToxValDB 9.5 (doi:10.2903/j.efsa.2012.2799)

Test system: Rattus norvegicus
Details: acute

SMILES | NOAEL [mg/kg-day]
OC(c1ccc(Cl)cc1)(c1ccc(Cl)cc1)C(Cl)(Cl)Cl [Dicofol] | 15
CCOP(=S)(OCC)SCCSCC [Disulfoton] | 0.3
COC(=O)N(C(=O)N1CO[C@@]2(C(=O)OC)Cc3cc(Cl)ccc3C2=N1)c1ccc(OC(F)(F)F)cc1 [Indoxacarb] | 12.5
CCOP(=S)(OCC)Oc1ccc([N+](=O)[O-])cc1 [Parathion] | 0.5
CCOP(=S)(OCC)SCSCC [Phorate] | 0.3
CCCSP(=O)(OCC)Oc1ccc(Br)cc1Cl (configuration not stated) [Profenofos] | 100
CCNc1nc(Cl)nc(NCC)n1 [Simazine] | 2.5
CCOP(=S)(OCC)SCSC(C)(C)C [Terbufos] | 0.2

Same assay, conditions: developmental; development

SMILES | NOAEL [mg/kg-day]
S=C1NCCN1 [4,5-Dihydro-2-mercaptoimidazole] | 5
COCC(=O)N(c1c(C)cccc1C)[C@H](C)C(=O)OC [Metalaxyl-M] | 50
CC12CC1(C)C(=O)N(c1cc(Cl)cc(Cl)c1)C2=O (configuration not stated) [Procymidone] | 3.5
CCN(CC)C(=O)SCc1ccc(Cl)cc1 [Thiobencarb] | 25
C=CC1(C)OC(=O)N(c2cc(Cl)cc(Cl)c2)C1=O (configuration not stated) [Vinclozolin] | 6

Same assay, conditions: repeat dose other

SMILES | NOAEL [mg/kg-day]
N#Cc1c(Cl)c(Cl)c(Cl)c(C#N)c1Cl [Chlorothalonil] | 60

Same assay, conditions: reproduction developmental

SMILES | NOAEL [mg/kg-day]
CCNc1nc(Cl)nc(NC(C)C)n1 [Atrazine] | 2.5
CN/C(=N\[N+](=O)[O-])NCc1cnc(Cl)s1 [Clothianidin] | 10
CC(C)(C)[C@@H](O)/C(=C\c1ccc(Cl)cc1Cl)n1cncn1 [Diniconazole-M] | 5

Same assay, conditions: short-term; duration: 4 days

SMILES | NOAEL [mg/kg-day]
COC[C@H](C)N(C(=O)CCl)c1c(C)csc1C [Dimethenamid-P] | 25

Same assay, conditions: subchronic; duration: 90 days

SMILES | NOAEL [mg/kg-day]
CC(C)N1C(=O)c2ccccc2NS1(=O)=O [Bentazone] | 25
COC(=O)c1c(Cl)c(Cl)c(C(=O)OC)c(Cl)c1Cl [Chlorthal-dimethyl] | 50

Test system: Canidae
Details: acute; Dog Other

SMILES | NOAEL [mg/kg-day]
CCOc1ccc2c(c1)C(C)=CC(C)(C)N2 [Ethoxyquin] | 50
CCOC(=O)CSc1nc(C(C)(C)C)nn1C(=O)N(C)C [Triazamate] | 1.5

Same assay, conditions: chronic; duration: 1 years; Dog Other

SMILES | NOAEL [mg/kg-day]
CCOP(=O)(SC(C)CC)N1CCSC1=O (configuration not stated) [Fosthiazate] | 0.5

Same assay, conditions: chronic; duration: 2 years; Dog Other

SMILES | NOAEL [mg/kg-day]
Cc1ccc(N=CN(C)C=Nc2ccc(C)cc2C)c(C)c1 [Amitraz] | 1

Same assay, conditions: short-term; duration: 2 weeks; Dog Other

SMILES | NOAEL [mg/kg-day]
COc1cccc(C(=O)NN(C(=O)c2cc(C)cc(C)c2)C(C)(C)C)c1C [Methoxyfenozide] | 20

Same assay, conditions: subchronic; duration: 1 months; Dog Other

SMILES | NOAEL [mg/kg-day]
O=C(O)COC(=O)c1cc(Oc2ccc(C(F)(F)F)cc2Cl)ccc1[N+](=O)[O-] | 60

Same assay, conditions: subchronic; duration: 90 days; Dog Other

SMILES | NOAEL [mg/kg-day]
Cc1ccc(N=CN(C)C=Nc2ccc(C)cc2C)c(C)c1 [Amitraz] | 1
CCOP(=O)(SC(C)CC)N1CCSC1=O (configuration not stated) [Fosthiazate] | 0.5
C[n+]1ccc(-c2cc[n+](C)cc2)cc1 [Paraquat] | 0.5

Test system: Oryctolagus sp.
Details: developmental; development

SMILES | NOAEL [mg/kg-day]
ClC1C(Cl)C(Cl)C(Cl)C(Cl)C1Cl (configuration not stated) [Lindane] | 5
CON(C)C(=O)Nc1ccc(Cl)c(Cl)c1 [Linuron] | 10
CC(C)N(C(=O)CCl)c1ccccc1 [Propachlor] | 58
COC(=O)N(OC)c1ccccc1COc1ccn(-c2ccc(Cl)cc2)n1 [Pyraclostrobin] | 3
CS(=O)(=O)c1ccc(C(=O)C2C(=O)CCCC2=O)c(Cl)c1COCC(F)(F)F [Tembotrione] | 1
CN1COCN(Cc2cnc(Cl)s2)/C1=N/[N+](=O)[O-] [Thiamethoxam] | 50
O=C(Nc1ccccc1)Nc1cnns1 [Thidiazuron] | 25
Cc1cc(Cl)ccc1OCCCC(=O)O [Thitrol] | 5

Same assay, conditions: reproduction developmental

SMILES | NOAEL [mg/kg-day]
c1nc[n]([Sn]([CH]2CCCCC2)([CH]2CCCCC2)[CH]2CCCCC2)n1 [Azocyclotin] | 2
CN/C(=N\[N+](=O)[O-])NCc1cnc(Cl)s1 [Clothianidin] | 10
O=C(O)C1(C(=O)Nc2ccc(Cl)cc2Cl)CC1 [Cyclanilide] | 3
C1CC[CH]([Sn+]([CH]2CCCCC2)[CH]2CCCCC2)CC1.[OH-] [Cyhexatin] | 2
CC(Oc1ccc(Oc2ccc(Cl)cc2Cl)cc1)C(=O)O (configuration not stated) [Diclofop] | 3
CC1=C(C)S(=O)(=O)CCS1(=O)=O [Dimethipin] | 20
O=C(Nc1ccccc1)Nc1ccnc(Cl)c1 [Forchlorfenuron] | 100
CC(=O)[O][Sn]([c]1ccccc1)([c]1ccccc1)[c]1ccccc1 [Triphenyltin acetate] | 0.1
[OH-].c1cc[c]([Sn+]([c]2ccccc2)[c]2ccccc2)cc1 [Triphenyltin hydroxide] | 0.1

Test system: Mus musculus
Details: short-term; duration: 14 days

SMILES | NOAEL [mg/kg-day]
CC1(c2ccc(Oc3ccccc3)cc2)OC(=O)N(Nc2ccccc2)C1=O (configuration not stated) [Famoxadone] | 20
